Assay in all cases: inhibition of tumour cell growth, NCI panel, 48 h
Assay [1] deals with MOLT-4 leukemia.
Assay [2] deals with PC-3 prostate.
The subject of assay [3] is MCF7 breast.
For assay [4], the system named is HCT-15 colon.
Assay [5] concerns MDA-MB-231 breast.
The subject of assay [6] is LOX IMVI melanoma.
Assay [7] concerns SN12C renal.
Assay [8] relates to 786-0 renal.
The test system of assay [9] is A498 renal.
Assay [10] relates to M14 melanoma.
The test system of assay [11] is HT29 colon.

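Dose response: 5 concentrations. Exposure: 48 h. Format: 96-well plates. Endpoint: linear interpolation; highest concentration if not reached. TGI: concentration producing complete growth inhibition.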 Where a SMILES comes first, the peptide text is derived from it. [ ]: non-standard residue; d: D form. The star is where a group is joined. AllylGly = C=CC[CH](N)C(=O)O; Boc = CC(C)(C)OC(=O)*; OtBu = CC(C)(C)O* Some results are limits rather than exact numbers.

`CCCCC(=O)Nc1ccc2cc(C(=O)OC)c(ON3C(=O)c4ccccc4C3=O)nc2n1`: the TGI in assay [1], in assay [2], in assay [3], in [4], in [5] and in [6] was more than 100 µM throughout. For the same compound, the TGI is more than 100 µM in assay [7], 36.1 µM in assay [8], more than 100 µM in assay [9] and 43.3 µM in assay [10].

`CC(C)C1(C)N=C(C(F)(F)F)c2cc(C(=O)C(F)(F)F)c3ccccc3c2N1` (stereo not drawn): the TGI in assay [1] came to 18.1 µM; in assay [11], 13.5 µM; in assay [2], 6.75 µM; in [3], 14.7 µM; in assay [4], 14.1 µM; in assay [5] it was 11.2 µM. Moreover, the TGI in assay [6] is 7.01 µM; in [7], 11 µM; in [8], 15.8 µM; in assay [9], 28.7 µM; in [10], 18.2 µM.

Consider `CCCCCCOc1ccc(C(=O)NOCc2ccccc2)cc1`, for which the TGI in [1], in [11], in assay [2], in [3], in assay [4] and in assay [5] was more than 100 µM throughout. For the same compound, the TGI in assay [6], in assay [7], in assay [8], in assay [9] and in [10] was more than 100 µM throughout.

For the compound `CCOC(=O)CCC(NC(=O)c1ccc(Oc2nc3ccc(C(F)(F)F)cc3nc2-c2ccccc2)cc1)C(=O)OCC` (stereo not drawn), the TGI in [1] was more than 100 µM; in [11] it was more than 75.2 µM; in assay [2], more than 100 µM; in [3] it was more than 100 µM; in assay [4], more than 100 µM; in assay [5], more than 61.1 µM. Besides, the TGI was more than 100 µM in assay [6]; more than 100 µM in assay [7]; 32.9 µM in [8]; more than 31.6 µM in assay [9]; more than 100 µM in assay [10].

Turning to `CCOc1ccc(/C(O)=C/c2nc3ccccc3nc2/C=C(\O)c2ccc(OCC)cc2)cc1`, the TGI in assay [1], in assay [11], in assay [2], in assay [3], in assay [4] and in [5] was more than 100 µM each time. Further, the TGI in assay [6], in assay [7], in [8], in assay [9] and in assay [10] was more than 100 µM in each case.

On to `CN(NC(=O)CCCl)C1=NCCN1`, for which the TGI in [1], in assay [11], in [2], in assay [3], in assay [4] and in [5] was more than 100 µM in each case. In addition, the TGI in [6], in assay [7], in assay [8], in assay [9] and in assay [10] was more than 100 µM in each case.

`N#Cc1c(-c2ccc([N+](=O)[O-])cc2)cc(-c2ccc(Nc3ccnc4cc(C(F)(F)F)ccc34)cc2)nc1N`: the TGI came out at 14.5 µM in assay [1]; 34.2 µM in [11]; 56.9 µM in assay [2]; 10.7 µM in [3]; 23.6 µM in assay [4]; 41.7 µM in [5]. Moreover, the TGI in assay [6] was more than 63.3 µM; in assay [7], 46.6 µM; in assay [8], 15.6 µM; in [9] it was more than 71.3 µM; in assay [10], 36.4 µM.

`C=CCC(NC(=O)C(CC(=O)OC(C)(C)C)NC(=O)OC(C)(C)C)C(=O)OC` (stereo not drawn) (Boc-Asp(OtBu)-[AllylGly]-OMe; configuration not given here): the TGI in [1] was more than 91.6 µM; in assay [11], more than 100 µM; in assay [2], more than 100 µM; in assay [3], more than 100 µM; in [4], more than 100 µM; in assay [5], more than 100 µM. Also, the TGI in assay [6] is 41.7 µM; in [7], more than 100 µM; in [8], more than 100 µM; in assay [9], more than 100 µM; in assay [10] it was 43 µM.

For `CN1CN(c2ccccc2)C2(CCN(CCCSc3ccccc3NC(=O)/C=C/c3ccccc3)CC2)C1=O`, the TGI in assay [1] is 7 µM; in assay [11] it was 5.75 µM; in assay [2], 23.5 µM; in [3] it was more than 49.8 µM; in assay [4] it was 26.5 µM; in [5] it was 3.32 µM. For the same compound, the TGI came out at 4.61 µM in assay [6]; 15.1 µM in assay [7]; 29.9 µM in assay [8]; 6.98 µM in [9]; 3.89 µM in [10].

As for `O=C1NC(Cc2c[nH]c3ccccc23)C(=O)N2C(C3CCCCC3)c3[nH]c4ccccc4c3C[C@@H]12` (stereo partly drawn), the TGI is 34.6 µM in assay [1]; 29.6 µM in assay [11]; 28.3 µM in assay [2]; more than 100 µM in assay [3]; 35.9 µM in [4]; 30.6 µM in assay [5]. Besides, the TGI in assay [6] was 28.1 µM; in assay [7] it was 20.8 µM; in assay [8], 28.5 µM; in assay [9] it was 37.5 µM; in [10], 28.9 µM.

On to `CC(C)NC(=O)CN1CCN(C2=CC(=O)c3c(O)ccc(O)c3C2=O)CC1`, for which the TGI in [1] was more than 100 µM; in assay [11], 12.3 µM; in [2], more than 80.5 µM; in assay [3], 9.35 µM; in assay [4], 45.3 µM; in assay [5], more than 63.5 µM. Further, the TGI worked out at 19.6 µM in assay [6]; 29.1 µM in assay [7]; 42.4 µM in assay [8]; 46 µM in [9]; 22.3 µM in [10].

In the case of `CC(C)(C)c1nc2c(o1)C(=O)c1ccccc1C2=O`, the TGI in [1] came out at 16.9 µM; in assay [11], 10.7 µM; in assay [2], 2.22 µM; in assay [3], 1.35 µM; in assay [4], 6.45 µM; in assay [5] it was 1.97 µM. For the same compound, the TGI in [6] came out at 1.94 µM; in assay [7], 2.29 µM; in [8], 5.51 µM; in [9] it was 11.5 µM; in [10] it was 1.97 µM.

Regarding `O=C(CC(=O)N1N=C(N2CCCCC2)CC1c1ccccc1)Nc1ccc(Cl)cc1` (stereo not drawn), the TGI in [1], in assay [11], in assay [2], in assay [3], in assay [4] and in [5] was more than 100 µM each time. For the same compound, the TGI in assay [6], in [7], in [8], in [9] and in [10] was more than 100 µM each time.

For the compound `C[C@]12CC[C@@H]3c4cc(OCC(F)(F)F)c(O)cc4C(=O)C[C@H]3[C@@H]1CC[C@@H]2O`, the TGI is more than 100 µM in [1]; 38.4 µM in [11]; more than 67.7 µM in assay [2]; more than 100 µM in assay [3]; more than 100 µM in [4]; more than 66.4 µM in assay [5]. The TGI was more than 100 µM in [6]; more than 100 µM in [7]; more than 100 µM in assay [8]; more than 100 µM in assay [9]; more than 41.7 µM in assay [10].

Turning to `O=C(/C=C/c1ccc(Cl)cc1)Oc1ccc(/C=C2\CCCCC2=O)cc1`, the TGI in assay [1] is 73.9 µM; in [11], more than 100 µM; in [2], more than 100 µM; in [3] it was more than 100 µM; in assay [4] it was more than 100 µM; in [5] it was more than 100 µM. The TGI in assay [6], in assay [7], in assay [8], in assay [9] and in [10] was more than 100 µM throughout.

For the compound `O=C1Nc2cccc(Cl)c2/C1=C\c1c(Cl)nc2sccn12`, the TGI in assay [1] is more than 100 µM; in assay [11], more than 100 µM; in assay [2], more than 100 µM; in assay [3], more than 100 µM; in [4] it was more than 100 µM; in assay [5] it was 40.3 µM. In addition, the TGI in [6] was more than 100 µM; in assay [7], more than 100 µM; in assay [8], 24.6 µM; in assay [9] it was more than 100 µM; in [10], more than 100 µM.

On to `COc1cc(C2c3cc4c(cc3OC(Nc3ccc(C(=O)O)cc3)C2C)OCO4)cc(OC)c1OC` (stereo not drawn), for which the TGI is 25.8 µM in assay [1]; more than 34.2 µM in assay [11]; more than 100 µM in assay [2]; 40 µM in [3]; more than 100 µM in [4]; 2.06 µM in assay [5]. Moreover, the TGI in [6] is more than 100 µM; in assay [7], more than 100 µM; in assay [8], more than 100 µM; in assay [9], more than 100 µM; in assay [10], 31.8 µM.

In the case of `COCC1OC(OC2C3=C(C(C)C)CCC3(C)/C=C3\C(CCC3(O)COC)C(C)C2O)C(O)C2OC3OC12OC3(C)C1CO1` (stereo not drawn), the TGI is 54 µM in assay [1]; more than 100 µM in assay [11]; more than 100 µM in assay [2]; more than 100 µM in assay [3]; more than 100 µM in assay [4]; more than 100 µM in [5]. Further, the TGI in assay [6] was 99.3 µM; in assay [7], more than 100 µM; in assay [8] it was more than 100 µM; in assay [9], more than 100 µM; in assay [10], more than 100 µM.

For `O=C(NNC(=S)Nc1ccccc1)c1ccccc1Nc1ccccc1C(=O)NNC(=S)Nc1ccccc1`, the TGI in assay [1] was more than 100 µM; in assay [11], 76.6 µM; in assay [2], 64.8 µM; in assay [3], 83.8 µM; in assay [4], more than 100 µM; in assay [5], 61.3 µM. The TGI is 26 µM in [6]; 57.9 µM in assay [7]; 41.5 µM in assay [8]; more than 100 µM in assay [9]; 41.5 µM in assay [10].

For the compound `OC12COc3ccccc3C1Oc1ccccc1C2` (stereo not drawn), the TGI in assay [1], in assay [11], in [2], in assay [3], in assay [4] and in assay [5] was more than 100 µM throughout. For the same compound, the TGI in assay [6], in assay [7], in assay [8], in assay [9] and in assay [10] was more than 100 µM each time.

As to `CC1(C)C(=O)C(C)(C)C12SSC1(S2)C(C)(C)C(=O)C1(C)C`, the TGI in assay [1], in assay [11], in assay [2], in assay [3], in assay [4] and in [5] was more than 100 µM each time. In addition, the TGI in assay [6], in assay [7], in [8], in [9] and in assay [10] was more than 100 µM each time.

Take `O=C1/C(=C\c2cccc(Oc3ccccc3)c2)S(=O)(=O)C(c2ccccc2)N1c1ccc(Cl)cc1` (stereo not drawn): the TGI in assay [1] is 33.1 µM; in assay [11], 28.2 µM; in assay [2], more than 100 µM; in assay [3], 62.9 µM; in assay [4], 32.8 µM; in [5], 34.7 µM. For the same compound, the TGI was 27.8 µM in [6]; 29 µM in [7]; 27 µM in assay [8]; more than 100 µM in [9]; 26.9 µM in [10].

For `O=P(Oc1ccccc1)(Oc1ccccc1)Oc1c[nH]c2ccccc12`, the TGI is 46.6 µM in [1]; 22 µM in [11]; 8.26 µM in assay [2]; 25.3 µM in assay [3]; 28.8 µM in [4]; 31.3 µM in [5]. Also, the TGI in [6] is 49.9 µM; in assay [7] it was 26 µM; in [8] it was 33.1 µM; in assay [9], 29.1 µM; in assay [10], 26.8 µM.

Regarding `CC(=O)C(=[N+]=[N-])C(=O)OC(C)(C)C#N`, the TGI in [1], in assay [11], in [2], in assay [3], in [4] and in assay [5] was more than 10 µM throughout. Further, the TGI in assay [6], in assay [7], in assay [8], in [9] and in assay [10] was more than 10 µM each time.

Source of the values: PubChem BioAssay (NCI).
